Data: PMC11676667, “Pharmacokinetics of Oral Cannabinoid Δ8-Tetrahydrocannabivarin and Its Main Metabolites in Healthy Participants” (Pharmaceuticals, 2024)
Like-named read-outs stand apart in the source and are kept apart here.

Test: Plasma pharmacokinetics after single oral dose of Δ8-THCV in MCT oil (LC-MS/MS, non-compartmental analysis)
Type: in vivo, human
Design: Clast (last quantifiable concentration): unit not given here
Conditions: for Clast (last quantifiable concentration) / tlast (time to last quantifiable concentration) / concentration at 0.5 h / concentration at 1 h / concentration at 2 h / concentration at 4 h / concentration at 6 h / concentration at 8 h / AUC(0-t) / Cmax / MRT / Tmax: plasma; for plasma concentration: Predose; for concentration at 0.5 h / concentration at 1 h / concentration at 2 h / concentration at 4 h / concentration at 6 h / concentration at 8 h / AUC(0-t) / Cmax / MRT / Tmax: human; for concentration at 0.5 h / concentration at 1 h / concentration at 2 h / concentration at 4 h / concentration at 6 h / concentration at 8 h: oral; for AUC(0-t) / Cmax / MRT / Tmax: po; for MRT: read-out: MRT (mean residence time); for Tmax: read-out: tmax
Summary of the method: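 Healthy participants received single oral Δ8-THCV in MCT oil (50 mg/mL; 12.5-200 mg, or placebo) after a high-fat, high-calorie breakfast, with ≥1-week washout. Plasma (K2EDTA) sampled predose and 0.5-8 h post-dose, assayed by validated LC-MS/MS including metabolites; PK by non-compartmental analysis, sub-LLOQ values set to 0.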

[1] = 100 mg single oral Δ8-THCV in MCT oil, Mean (±SD)
[2] = 100 mg single oral Δ8-THCV in MCT oil, Median (Range)
[3] = 200 mg single oral Δ8-THCV in MCT oil, Mean (±SD)
[4] = 200 mg single oral Δ8-THCV in MCT oil, Median (Range)
[5] = 12.5 mg, 12.5 mg Δ8-THCV dose, Mean (SD, %CV)
[6] = 12.5 mg, 12.5 mg Δ8-THCV dose, Median (IQ Range)
[7] = 25 mg, 25 mg Δ8-THCV dose, Mean (SD, %CV)
[8] = 25 mg, 25 mg Δ8-THCV dose, Median (IQ Range)
[9] = 50 mg, 50 mg Δ8-THCV dose, Mean (SD, %CV)
[10] = 50 mg, 50 mg Δ8-THCV dose, Median (IQ Range)
[11] = 100 mg, 100 mg Δ8-THCV dose, Mean (SD, %CV)
[12] = 100 mg, 100 mg Δ8-THCV dose, Median (IQ Range)
[13] = 200 mg, 200 mg Δ8-THCV dose, Mean (SD, %CV)
[14] = 200 mg, 200 mg Δ8-THCV dose, Median (IQ Range)
[15] = 100 mg, 100 mg single oral Δ8-THCV in MCT oil, Mean (±SD)
[16] = 100 mg, 100 mg single oral Δ8-THCV in MCT oil, Median (Range)
[17] = 200 mg, 200 mg single oral Δ8-THCV in MCT oil, Mean (±SD)
[18] = 200 mg, 200 mg single oral Δ8-THCV in MCT oil, Median (Range)

## CCCCCc1cc(O)c2c(c1)OC(C)(C)[C@@H]1CC=C(C(=O)O)CC21 (single isomer, unassigned; (+)) [Δ8-THC-COOH, (+)-11-nor-Δ8-THC-9-carboxylic acid]
[1]
  Clast (last quantifiable concentration): 1.3 (±0.2)
  tlast (time to last quantifiable concentration): 5.8 (±1.3)
[2]
  Clast (last quantifiable concentration): 1.3 (1–1.7)
  tlast (time to last quantifiable concentration): 6 (4–8)
[3]
  Clast (last quantifiable concentration): 1.9 (±0.6)
  tlast (time to last quantifiable concentration): 7.5 (±1.2)
[4]
  Clast (last quantifiable concentration): 1.8 (1.1–2.8)
  tlast (time to last quantifiable concentration): 8 (4–8)
12.5 mg Δ8-THCV dose, Mean (SD, %CV)
  plasma concentration: 0 (±0, --) ng/mL
12.5 mg Δ8-THCV dose, Median (IQ Range)
  plasma concentration: 0 (0–0) ng/mL
25 mg Δ8-THCV dose, Mean (SD, %CV)
  plasma concentration: 0 (±0, --) ng/mL
25 mg Δ8-THCV dose, Median (IQ Range)
  plasma concentration: 0 (0–0) ng/mL
50 mg Δ8-THCV dose, Mean (SD, %CV)
  plasma concentration: 0 (±0, --) ng/mL
50 mg Δ8-THCV dose, Median (IQ Range)
  plasma concentration: 0 (0–0) ng/mL
100 mg Δ8-THCV dose, Mean (SD, %CV)
  plasma concentration: 0 (±0, --) ng/mL
100 mg Δ8-THCV dose, Median (IQ Range)
  plasma concentration: 0 (0–0) ng/mL
200 mg Δ8-THCV dose, Mean (SD, %CV)
  plasma concentration: 0 (±0, --) ng/mL
200 mg Δ8-THCV dose, Median (IQ Range)
  plasma concentration: 0 (0–0) ng/mL
[5]
  concentration at 0.5 h: 0 ng/mL
  concentration at 1 h: 0 ng/mL
  concentration at 2 h: 0 ng/mL
  concentration at 4 h: 0 ng/mL
  concentration at 6 h: 0 ng/mL
  concentration at 8 h: 0 ng/mL
[6]
  concentration at 0.5 h: 0 ng/mL
  concentration at 1 h: 0 ng/mL
  concentration at 2 h: 0 ng/mL
  concentration at 4 h: 0 ng/mL
  concentration at 6 h: 0 ng/mL
  concentration at 8 h: 0 ng/mL
[7]
  concentration at 0.5 h: 0 ng/mL
  concentration at 1 h: 0 ng/mL
  concentration at 2 h: 0 ng/mL
  concentration at 4 h: 0 ng/mL
  concentration at 6 h: 0 ng/mL
  concentration at 8 h: 0 ng/mL
[8]
  concentration at 0.5 h: 0 ng/mL
  concentration at 1 h: 0 ng/mL
  concentration at 2 h: 0 ng/mL
  concentration at 4 h: 0 ng/mL
  concentration at 6 h: 0 ng/mL
  concentration at 8 h: 0 ng/mL
[9]
  concentration at 0.5 h: 0 ng/mL
  concentration at 1 h: 0 ng/mL
  concentration at 2 h: 0 ng/mL
  concentration at 4 h: 0 ng/mL
  concentration at 6 h: 0 ng/mL
  concentration at 8 h: 0 ng/mL
[10]
  concentration at 0.5 h: 0 ng/mL
  concentration at 1 h: 0 ng/mL
  concentration at 2 h: 0 ng/mL
  concentration at 4 h: 0 ng/mL
  concentration at 6 h: 0 ng/mL
  concentration at 8 h: 0 ng/mL
[11]
  concentration at 0.5 h: 0 ng/mL
  concentration at 1 h: 0 ng/mL
  concentration at 2 h: 0 ng/mL
  concentration at 4 h: 0.4 ng/mL
  concentration at 6 h: 0.6 ng/mL
  concentration at 8 h: 0.1 ng/mL
[12]
  concentration at 0.5 h: 0 ng/mL
  concentration at 1 h: 0 ng/mL
  concentration at 2 h: 0 ng/mL
  concentration at 4 h: 0 ng/mL
  concentration at 6 h: 0 ng/mL
  concentration at 8 h: 0 ng/mL
[13]
  concentration at 0.5 h: 0 ng/mL
  concentration at 1 h: 0 ng/mL
  concentration at 2 h: 0.4 ng/mL
  concentration at 4 h: 1.3 ng/mL
  concentration at 6 h: 1.8 ng/mL
  concentration at 8 h: 1.6 ng/mL
[14]
  concentration at 0.5 h: 0 ng/mL
  concentration at 1 h: 0 ng/mL
  concentration at 2 h: 0 ng/mL
  concentration at 4 h: 1.7 ng/mL
  concentration at 6 h: 2 ng/mL
  concentration at 8 h: 1.6 ng/mL
[15]
  AUC(0-t): 2.4 ng·h/mL
  Cmax: 1.4 ng/mL
  MRT: 5.2 h
  Tmax: 5 h
[16]
  AUC(0-t): 1.6 ng·h/mL
  Cmax: 1.4 ng/mL
  MRT: 5.3 h
  Tmax: 5 h
[17]
  AUC(0-t): 8.1 ng·h/mL
  Cmax: 2.4 ng/mL
  MRT: 5.7 h
  Tmax: 6.1 h
[18]
  AUC(0-t): 9.6 ng·h/mL
  Cmax: 2.5 ng/mL
  MRT: 5.8 h
  Tmax: 6 h
Of 504 plasma samples from 15 participants after oral Δ8-THCV
  number of positive plasma samples: 49
One subject after oral Δ8-THCV in MCT oil, Figure A1
  concentration in representative plasma sample: 1.4 ng/mL
